In patent publication US11180452B2, “Methods and compositions for selectively inhibiting pathogenic microbes” (priority 2019, dated 2021):
≈ marks a conversion by molar mass, not a printed value. Read-outs that look alike come from different tables or passages of the source.

Tests used:
Format in all cases: cell-based
[1] = test system: Trichophyton rubrum; assay: MIC against Trichophyton rubrum; conditions: Trichophyton rubrum Castellani Sabouraud ATCC: 28188; read-out: MIC
[2] = test system: Bacillus subtilis; assay: Bacillus subtilis MIC / MBC; conditions: for MBC: Bacillus subtilis NRRL: B-571, minimum bactericidal concentration; for MIC: Bacillus subtilis
[3] = test system: Bacillus thuringiensis; conditions: for MIC: Bacillus thuringiensis
[4] = test system: Burkholderia thailandensis Brett et al ATCC: 700388; assay: microbe, parasite or virus in culture
[5] = test system: Candida glabrata; assay: Candida glabrata MIC / MFC; conditions: Nakaseomyces glabratus
[6] = test system: Francisella tularensis subsp. Holarctica Strain LVSR NR-597; assay: microbe, parasite or virus in culture
[7] = test system: C. albicans; assay: Candida albicans MIC / MFC
[8] = Bacillus subtilis (Ehrenberg 1835) Cohn 1872 NRRL: B-571, read-out: MIC
[9] = Bacillus thuringiensis Berliner ATCC: 10792
[10] = Bacillus thuringiensis Berliner ATCC: 10792, read-out: MIC
[11] = Candida glabrata #584 (Table 2), read-out: MIC
[12] = Candida glabrata #584 (Table 2), minimum fungicidal concentration, read-out: MFC

SMILES: Brc1ccc2[nH]cc(Sc3nc4ccccc4s3)c2c1 [Compound 174L, 2-((5-bromo-1H-indol-3-yl)thio)benzo[d]thiazole]
- MIC [1]: > 18 µg/mL
- MBC [2]: > 50 µg/mL
- MIC [2, 8]: 1.56 µg/mL (≈ 4.32 µM)
- MBC [3, 9]: 50 µg/mL (≈ 138 µM)
- MIC [3, 10]: 1.56 µg/mL (≈ 4.32 µM)
- MIC [4]: > 50 µg/mL
- MIC [5, 11]: > 50 µg/mL

SMILES: COc1ccc(Sc2c[nH]c3ccccc23)cc1 [Compound 156O, 3-((4-methoxyphenyl)thio)-1H-indole]
- MIC [1]: 3.19 µg/mL (≈ 12.5 µM)
- MBC [2]: 12.5 µg/mL (≈ 49 µM)
- MIC [2, 8]: 6.25 µg/mL (≈ 24.5 µM)
- MBC [3, 9]: > 50 µg/mL
- MIC [3, 10]: 6.25 µg/mL (≈ 24.5 µM)
- MIC [5, 11]: 50 µg/mL (≈ 196 µM)
- MIC [6]: 3.13 µg/mL (≈ 12.3 µM)

SMILES: Brc1ccc(Sc2c[nH]c3ccc(Br)cc23)cc1 [Compound 172D, 5-bromo-3-((4-bromophenyl)thio)-1H-indole]
- MIC [1]: 1.18 µg/mL (≈ 3.08 µM)
- MBC [2]: 5 µg/mL (≈ 13.1 µM)
- MIC [2, 8]: 1.25 µg/mL (≈ 3.26 µM)
- MIC ([2]; strain B-571 (Table 4), read-out: Bacillus subtilis MIC): 1.25 µg/mL (≈ 3.26 µM)
- MIC ([2]; strain B-1985, read-out: Bacillus subtilis MIC): 1.25 µg/mL (≈ 3.26 µM)
- MIC ([2]; strain B-3665, read-out: Bacillus subtilis MIC): 1.25 µg/mL (≈ 3.26 µM)
- MIC ([2]; strain B-14322, read-out: Bacillus subtilis MIC): 1.25 µg/mL (≈ 3.26 µM)
- MIC ([2]; strain B-41090, read-out: Bacillus subtilis MIC): 2.5 µg/mL (≈ 6.53 µM)
- MIC ([2]; strain B-41581, read-out: Bacillus subtilis MIC): 1.25 µg/mL (≈ 3.26 µM)
- MIC ([2]; strain BD-594, read-out: Bacillus subtilis MIC): 2.5 µg/mL (≈ 6.53 µM)
- MBC [3, 9]: 10 µg/mL (≈ 26.1 µM)
- MIC ([3]; ATCC10792, […]): 1.25 µg/mL (≈ 3.26 µM)
- MIC [3, 10]: 1.25 µg/mL (≈ 3.26 µM)
- MIC ([3]; strain B-1596): 2.5 µg/mL (≈ 6.53 µM)
- MBC [4]: > 150 µg/mL
- MIC [4]: 100 µg/mL (≈ 261 µM)
- MIC [5, 11]: > 50 µg/mL
- MIC [6]: 1.25 µg/mL (≈ 3.26 µM)

SMILES: Clc1cccc(Sc2c[nH]c3ccc(Br)cc23)c1Cl [Compound 174T, 5-bromo-3-((2,3-dichlorophenyl)thio)-1H-indole]
- MIC [1]: 1.16 µg/mL (≈ 3.11 µM)
- MBC [2]: > 10 µg/mL
- MIC [2, 8]: 1.25 µg/mL (≈ 3.35 µM)
- MBC [3, 9]: 2.5 µg/mL (≈ 6.7 µM)
- MIC [3, 10]: 1.25 µg/mL (≈ 3.35 µM)
- MIC [4]: > 50 µg/mL
- MFC [5, 12]: 25 µg/mL (≈ 67 µM)
- MIC [5, 11]: 3.13 µg/mL (≈ 8.39 µM)

SMILES: Brc1ccc2[nH]cc(Sc3ccc4ccccc4c3)c2c1 [Compound 174S, 5-bromo-3-(naphthalen-2-ylthio)-1H-indole]
- MIC [1]: > 8.82 µg/mL
- MIC [2, 8]: > 50 µg/mL
- MIC [3, 10]: > 50 µg/mL
- MIC [4]: > 50 µg/mL
- MIC [5, 11]: > 50 µg/mL

SMILES: [O-][S+](c1ccc(Br)cc1)c1c[nH]c2ccc(Br)cc12 (stereo not shown) [Compound 172I, 5-bromo-3-((4-bromophenyl)sulfinyl)-1H-indole]
- MIC [1]: 9.92 µg/mL (≈ 24.9 µM)
- MBC [2]: 10 µg/mL (≈ 25.1 µM)
- MIC [2, 8]: 10 µg/mL (≈ 25.1 µM)
- MBC [3, 9]: 40 µg/mL (≈ 100 µM)
- MIC [3, 10]: 10 µg/mL (≈ 25.1 µM)
- MIC [5, 11]: > 40 µg/mL
- MIC [6]: 20 µg/mL (≈ 50.1 µM)

SMILES: Brc1ccc(Sc2c[nH]c3c(Br)cccc23)cc1 [Compound 174H, 7-bromo-3-((4-bromophenyl)thio)-1H-indole]
- MIC [1]: 2.38 µg/mL (≈ 6.21 µM)
- MBC [2]: > 50 µg/mL
- MIC [2, 8]: 3.13 µg/mL (≈ 8.17 µM)
- MBC [3, 9]: 12.5 µg/mL (≈ 32.6 µM)
- MIC [3, 10]: 6.25 µg/mL (≈ 16.3 µM)
- MIC [4]: > 50 µg/mL
- MIC [5, 11]: 12.5 µg/mL (≈ 32.6 µM)
- MIC [6]: 3.13 µg/mL (≈ 8.17 µM)

SMILES: O=S(=O)(c1ccc(Br)cc1)c1c[nH]c2ccc(Br)cc12 [Compound 172J, 5-bromo-3-((4-bromophenyl)sulfonyl)-1H-indole]
- MIC [1]: 10.3 µg/mL (≈ 24.8 µM)
- MBC [2]: 6.25 µg/mL (≈ 15.1 µM)
- MIC [2, 8]: 3.13 µg/mL (≈ 7.54 µM)
- MBC [3, 9]: 3.13 µg/mL (≈ 7.54 µM)
- MIC [3, 10]: 1.56 µg/mL (≈ 3.76 µM)
- MIC [4]: > 50 µg/mL
- MIC [5, 11]: > 50 µg/mL
- MIC [6]: 6.25 µg/mL (≈ 15.1 µM)

SMILES: Brc1ccc2[nH]cc(Sc3cccc4ccccc34)c2c1 [Compound 174G, 5-bromo-3-(naphthalen-1-ylthio)-1H-indole]
- MIC [1]: 2.21 µg/mL (≈ 6.24 µM)
- MBC [2]: 50 µg/mL (≈ 141 µM)
- MIC [2, 8]: 1.56 µg/mL (≈ 4.4 µM)
- MBC [3, 9]: 3.13 µg/mL (≈ 8.84 µM)
- MIC [3, 10]: 1.56 µg/mL (≈ 4.4 µM)
- MIC [4]: > 50 µg/mL
- MIC [5, 11]: > 50 µg/mL

SMILES: Brc1ccc(Sc2c[nH]c3cc(Br)cc(Br)c23)cc1 [Compound 174AE, 4,6-dibromo-3-((4-bromophenyl)thio)-1H-indole]
- MBC [2]: 4 µg/mL (≈ 8.66 µM)
- MIC [2, 8]: 2 µg/mL (≈ 4.33 µM)
- MBC [3, 9]: > 50 µg/mL
- MIC [3, 10]: 2 µg/mL (≈ 4.33 µM)
- MIC [4]: > 50 µg/mL
- MFC ([5]; C. glabrata strain #325, read-out: MFC): > 50 µg/mL
- MIC ([5]; C. glabrata strain #325, read-out: MIC): 12.5 µg/mL (≈ 27.1 µM)
- MIC ([5]; C. glabrata strain #584 (Table 7), read-out: MIC): 25 µg/mL (≈ 54.1 µM)
- MIC [5, 11]: 25 µg/mL (≈ 54.1 µM)
- MIC [6]: 4 µg/mL (≈ 8.66 µM)
- MFC ([7]; C. albicans strain #761, read-out: MFC): > 50 µg/mL
- MIC ([7]; C. albicans strain #761, read-out: MIC): 50 µg/mL (≈ 108 µM)
- MFC ([7]; C. albicans strain #762, read-out: MFC): 25 µg/mL (≈ 54.1 µM)
- MIC ([7]; C. albicans strain #762, read-out: MIC): 6.25 µg/mL (≈ 13.5 µM)

SMILES: COc1ccc(Sc2c[nH]c3ccc(Br)cc23)cc1 [Compound 174Q, 5-bromo-3-((4-methoxyphenyl)thio)-1H-indole]
- MIC [1]: 2.08 µg/mL (≈ 6.22 µM)
- MBC [2]: > 50 µg/mL
- MIC [2, 8]: 1.56 µg/mL (≈ 4.67 µM)
- MBC [3, 9]: 12.5 µg/mL (≈ 37.4 µM)
- MIC [3, 10]: 1.56 µg/mL (≈ 4.67 µM)
- MIC [4]: > 50 µg/mL
- MFC [5, 12]: > 50 µg/mL
- MIC [5, 11]: 3.13 µg/mL (≈ 9.36 µM)

SMILES: Fc1ccc2c(Sc3ccc(Br)cc3)c[nH]c2c1 [Compound 172A, 3-((4-bromophenyl)thio)-6-fluoro-1H-indole]
- MIC [1]: 9.52 µg/mL (≈ 29.5 µM)
- MBC [2]: > 50 µg/mL
- MIC [2, 8]: 1.56 µg/mL (≈ 4.84 µM)
- MBC [3, 9]: 1.56 µg/mL (≈ 4.84 µM)
- MIC [3, 10]: 1.56 µg/mL (≈ 4.84 µM)
- MIC [4]: > 50 µg/mL
- MFC ([5]; C. glabrata strain #325): 12.5 µg/mL (≈ 38.8 µM)
- MIC ([5]; C. glabrata strain #325): 6.25 µg/mL (≈ 19.4 µM)
- MFC [5, 12]: 3.13 µg/mL (≈ 9.71 µM)
- MIC [5, 11]: 1.56 µg/mL (≈ 4.84 µM)
- MIC [6]: 0.78 µg/mL (≈ 2.42 µM)
- MFC ([7]; C. albicans strain #761): 12.5 µg/mL (≈ 38.8 µM)
- MIC ([7]; C. albicans strain #761): 3.13 µg/mL (≈ 9.71 µM)
- MFC ([7]; C. albicans strain #762): 6.25 µg/mL (≈ 19.4 µM)
- MIC ([7]; C. albicans strain #762): 1.56 µg/mL (≈ 4.84 µM)
